Data published in patent US7528138B2, “Pyrazolo[1,5-a]pyrimidines useful as inhibitors of protein kinases” (Vertex Pharmaceuticals Incorporated, priority 2004, dated 2009).

What follows are compounds tested against T1, Rlk (Homo sapiens, UniProt P42681) (assay: RLK Inhibition Assay, coupled enzyme assay). Settings: enzyme inhibition data (Ki), Table 11.
T1 sequence (P42681 1-527): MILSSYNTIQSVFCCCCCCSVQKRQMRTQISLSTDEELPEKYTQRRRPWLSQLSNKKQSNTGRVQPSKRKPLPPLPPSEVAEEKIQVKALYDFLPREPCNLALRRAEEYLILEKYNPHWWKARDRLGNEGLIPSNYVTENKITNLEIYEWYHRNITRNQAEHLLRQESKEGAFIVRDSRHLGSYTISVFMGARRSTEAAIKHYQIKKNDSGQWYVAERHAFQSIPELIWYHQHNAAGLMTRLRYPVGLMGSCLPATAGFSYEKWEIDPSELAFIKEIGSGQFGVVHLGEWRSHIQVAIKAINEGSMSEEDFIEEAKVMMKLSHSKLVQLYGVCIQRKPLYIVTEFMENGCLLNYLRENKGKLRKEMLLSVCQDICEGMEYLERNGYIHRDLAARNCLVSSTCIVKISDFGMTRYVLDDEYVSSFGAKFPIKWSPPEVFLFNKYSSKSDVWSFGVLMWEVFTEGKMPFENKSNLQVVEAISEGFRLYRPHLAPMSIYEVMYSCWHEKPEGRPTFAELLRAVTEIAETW
Type: biochemical
Procedure: Compounds are screened for their ability to inhibit Rlk using a standard coupled enzyme assay (Fox et al., Protein Sci., (1998) 7, 2249). Assays are carried out in a mixture of 20 mM MOPS (pH 7.0), 10 mM MgCl2, 0.1% BSA and 1 mM DTT. Final substrate concentrations in the assay are 100 μM ATP (Sigma Chemicals) and 10 μM peptide (Poly Glu:Tyr 4:1). Assays are carried out at 30° C. and in the presence of 40 nM Rlk. Final concentrations of the components of the coupled enzyme system are 2.5 mM phosphoenolpyruvate, 300 μM NADH, 30 μg/ml pyruvate kinase and 10 μg/ml lactate dehydrogenase.
An assay stock buffer solution is prepared containing all of the reagents listed above, with the exception of ATP and the test compound of interest. 60 μl of the stock solution is placed in a 96 well plate followed by addition of 2 μl of DMSO stock containing serial dilutions of the test compound (typically starting from a final concentration of 7.5 μM). The plate is preincubated for 10 minutes at 30° C. and the reaction initiated by addition of 5 μl of ATP. Initial reaction rates are determined with a Molecular Devices SpectraMax Plus plate reader over a 10 minute time course. IC50 and Ki data are calculated from non-linear regression analysis using the Prism software package (GraphPad Prism version 3.0cx for Macintosh, GraphPad Software, San Diego Calif., USA).

Q: Which Ki does the source give for `NCc1ccc(-c2cnc3c(-c4ccccn4)c(N)nn3c2)cc1` [Compound V-195] here?
A: 500 to 5000 nM

Q: `CNCc1ccc(-c2cnc3c(-c4ccccn4)c(N)nn3c2)cc1` [Compound V-236] was tested. Which Ki did it give?
A: 500 to 5000 nM

Q: How did the Ki turn out when `Nc1nn2cc(-c3cccc(N4CCNCC4)c3)cnc2c1-c1ccccn1` [Compound V-222] was run?
A: 500 to 5000 nM

Q: `Nc1nn2cc(-c3ccc(CNC4CCNCC4)cc3)cnc2c1-c1ccccn1` [Compound V-232] was tested. Which Ki did it give?
A: 500 to 5000 nM

Q: `NC1NN2C=C(c3cccc(CN4CCCNCC4)c3)C=NC2=C1c1ccccn1` (stereo not drawn) [Compound V-228] was tested. Which Ki did it give?
A: 500 to 5000 nM

Q: For `NC1NN2C=C(c3cccc(CN4CC[C@H](N)C4)c3)C=NC2=C1c1ccccn1` (stereo partly drawn) [Compound V-227], which Ki is on record?
A: 500 to 5000 nM

Q: `CN(C)Cc1cccc(-c2cnc3c(-c4ccccn4)c(N)nn3c2)c1` [Compound V-215] was tested. Which Ki did it give?
A: 500 to 5000 nM

Q: With `Nc1nn2cc(-c3cccc(CN4CCNCC4)c3)cnc2c1-c1ccccn1` [Compound V-223] as the compound, how does the Ki read?
A: 500 to 5000 nM

Q: `CN(C)Cc1ccc(-c2cnc3c(-c4ccccn4)c(N)nn3c2)cc1` [Compound V-214] was tested. Which Ki did it give?
A: 500 to 5000 nM

Q: `Nc1nn2cc(-c3ccc(CN4CCC(N)CC4)cc3)cnc2c1-c1ccccn1` [Compound V-234] was tested. Which Ki did it give?
A: 500 to 5000 nM

Q: For `Nc1nn2cc(-c3ccc(CN4CC[C@H](N)C4)cc3)cnc2c1-c1ccccn1` [Compound V-233], which Ki is on record?
A: 500 to 5000 nM

Q: For `Nc1nn2cc(-c3ccc(CN4CC[C@@H](N)C4)cc3)cnc2c1-c1ccccn1` [Compound V-231], which Ki is on record?
A: 500 to 5000 nM

Q: `Nc1nn2cc(-c3ccc(CN4CCNCC4)cc3)cnc2c1-c1ccccn1` [Compound V-217] was tested. Which Ki did it give?
A: < 500 nM

Q: For `CNCCCN(C)Cc1ccc(-c2cnc3c(-c4ccccn4)c(N)nn3c2)cc1` [Compound V-230], which Ki is on record?
A: < 500 nM

Q: `NCc1cccc(-c2cnc3c(-c4ccccn4)c(N)nn3c2)c1` [Compound V-202] was tested. Which Ki did it give?
A: 500 to 5000 nM

Q: With `CNCCCN(C)C(=O)c1ccc(-c2cnc3c(-c4ccccn4)c(N)nn3c2)cc1` [Compound V-191] as the compound, how does the Ki read?
A: < 500 nM

Q: How did the Ki turn out when `CN(C)CCN(C)C(=O)c1ccc(-c2cnc3c(-c4ccccn4)c(N)nn3c2)cc1` [Compound V-188] was run?
A: < 500 nM

Q: With `NC1CCN(Cc2cccc(C3=CN4NC(N)C(c5ccccn5)=C4N=C3)c2)CC1` (stereo not drawn) [Compound V-229] as the compound, how does the Ki read?
A: 500 to 5000 nM

The compounds below were run against Aurora-B (Homo sapiens, UniProt Q96GD4) (assay: Aurora B (Aurora-1) Inhibition Assay, 33P incorporation). Settings: enzyme inhibition data (Ki), Table 11; read-out: AurB Ki.
Aurora-B, sequence (Q96GD4 whole entry): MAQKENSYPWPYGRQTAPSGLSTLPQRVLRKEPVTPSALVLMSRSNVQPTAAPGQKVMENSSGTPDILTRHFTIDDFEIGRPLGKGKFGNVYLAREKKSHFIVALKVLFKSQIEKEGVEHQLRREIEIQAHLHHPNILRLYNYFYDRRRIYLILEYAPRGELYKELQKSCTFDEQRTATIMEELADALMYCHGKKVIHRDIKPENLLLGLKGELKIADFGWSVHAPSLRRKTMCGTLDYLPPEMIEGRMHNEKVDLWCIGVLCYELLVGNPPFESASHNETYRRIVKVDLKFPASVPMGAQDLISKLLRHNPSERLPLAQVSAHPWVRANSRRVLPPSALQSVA
Type: biochemical
Procedure: An assay buffer solution is prepared which consists of 25 mM HEPES (pH 7.5), 10 mM MgCl2, 0.1% BSA and 10% glycerol. A 22 nM Aurora-B solution, also containing 1.7 mM DTT and 1.5 mM Kemptide (LRRASLG), is prepared in assay buffer. To 22 μL of the Aurora-B solution, in a 96-well plate, is added 2 μl of a compound stock solution in DMSO and the mixture is allowed to equilibrate for 10 minutes at 25° C. The enzyme reaction is initiated by the addition of 16 μl stock [γ-^33P]-ATP solution (˜20 nCi/μL) prepared in assay buffer, to a final assay concentration of 800 μM. The reaction is stopped after 3 hours by the addition of 16 μL 500 mM phosphoric acid and the levels of ^33P incorporation into the peptide substrate is determined by the following method.
A phosphocellulose 96-well plate (Millipore, Cat no. MAPHNOB50) is pre-treated with 100 μL of a 100 mM phosphoric acid prior to the addition of the enzyme reaction mixture (40 μL). The solution is left to soak on to the phosphocellulose membrane for 30 minutes and the plate subsequently is washed four times with 200 μL of a 100 mM phosphoric acid. To each well of the dry plate is added 30 μL of Optiphase ‘SuperMix’ liquid scintillation cocktail (Perkin Elmer) prior to scintillation counting (1450 Microbeta Liquid Scintillation Counter, Wallac). Levels of non-enzyme catalysed background radioactivity are determined by adding 16 μL of the 500 mM phosphoric acid to control wells, containing all assay components (which acts to denature the enzyme), prior to the addition of the [γ-^33P]-ATP solution. Levels of enzyme catalysed ^33P incorporation are calculated by subtracting mean background counts from those measured at each inhibitor concentration. For each Ki determination 8 data points, typically covering the concentration range 0-10 μM compound, are obtained in duplicate (DMSO stocks are prepared from an initial compound stock of 10 mM with subsequent 1:2.5 serial dilutions). Ki values are calculated from initial rate data by non-linear regression using the Prism software package (Prism 3.0, Graphpad Software, San Diego, Calif.).

Q: For `Cc1ccc(-c2c(N)nn3cc(-c4ccncc4)cnc23)nc1` [Compound V-132], which Ki is on record?
A: 500 to 5000 nM

Q: With `Nc1nn2cc(-c3ccncc3)cnc2c1-c1cc(N2CCCCC2)ncn1` [Compound V-179] as the compound, how does the Ki read?
A: < 500 nM

Q: How did the Ki turn out when `Nc1nn2cc(-c3ccncc3)cnc2c1-c1ncccc1OCc1ccccc1` [Compound V-134] was run?
A: 500 to 5000 nM

Q: `Cc1cccnc1-c1c(N)nn2cc(-c3ccncc3)cnc12` [Compound V-135] was tested. Which Ki did it give?
A: 500 to 5000 nM

Q: For `Cc1cccc(-c2c(N)nn3cc(-c4ccncc4)cnc23)n1` [Compound V-178], which Ki is on record?
A: 500 to 5000 nM

Q: With `Cc1ccnc(-c2c(N)nn3cc(-c4ccncc4)cnc23)c1` [Compound V-133] as the compound, how does the Ki read?
A: 500 to 5000 nM
